{"source": "patent EP0061157A1", "about": "“2-Benzoylamino substituted benzylamine derivative and a process for preparation thereof” (Hokuriku Pharmaceutical Co.,Ltd, priority 1981, dated 1982)", "key": {"tracheal secretory cells": {"system": "tracheal secretory cells", "assay": "Effect on the secretory activity of the tracheal secretory cells (isolated tracheal strips, AB/PAS staining, A^IWR)", "type": "cell-based, dogs", "settings": "for Acinar Inner Diameter of Submucosal Gland to Wall Ratio (A^IWR): dog tracheal strips incubated 30 minutes, control 5.0 x 10^-2; for activation at 10 µM / activation at 1 µM / activation at 0.1 µM: Canis lupus familiaris, 0.5 h, relative to control, read-out: Increasing Rate in A^IWR (%)", "protocol": "Experiments were performed following the method of Yanaura et al. (Nippon Yakurigaku Zasshi, 77, 559 - 568 (1981)). Male mongrel dogs weighing 10 to 12 kg were anesthetized with sodium pentobarbital (30 mg/kg, i.v.). The trachea was quickly excised about 10 cm long and rapidly […] to a Hanks' solution (95% 02 - 5% CO2, 37 + 1° ). Connective tissues around were removed and the trachea was cut into strips about 2 cm long. The tracheal strips were preincubated for 30 minutes in Hanks' solution, and then drugs were added to the solution and the mixtures were further incubated for 30 minutes. The tracheal strips were then fixed with a 10% formaldehyde isotonic solution followed by dehydrating in a series of graded ethanol concentrations and paraffinembedding in a conventional manner. Sections 4 µm thick were cut with a Jung type microtome and stained with alcian blue (pH 2.5) - periodic acid Schiff (AB (pH 2.5)/PAS). The specimens were studied by the optical microscopic observation with the effects of drugs on the secretory activities of the tracheal secretory cells and on the dissolution of acid glycoprotein in submucosal glandular cells of the tracheal. A thickness between basement membrance and cartilage (thickness of […]; wall is referred to as \"W\"), and acinar inner diameter of submucosal gland (A^I) were measured. Then, acinar inner diameter of submucosal gland to wall ratio (A^IWR) was calculated. Increase of A^IWR reflects enhancement of the secretory activity in submucosal gland. If test drug has a significant increase in A^IWR, it has a respiratory tract fluid (RTF) - increasing effect."}, "Acute toxicity test": {"assay": "Acute toxicity test", "settings": "mouse, in vivo, mice, Litchfield-Wilcoxon, dead animals within 7 days", "protocol": "Male mice of ddy-strain weighing 20 to 25 g were used. Drugs were administered orally and intraperitoneally to 10 mice in each group. LD50 was calculated by the Litchfield-Wilcoxon method from dead animals within 7 days."}, "[1]": {"system": "acid glycoprotein in submucosal glandular cells of the trachea", "assay": "Effect on the dissolution of acid glycoprotein in submucosal glandular cells of the trachea (isolated tracheal strips, AB/PAS staining)", "type": "cell-based, dogs", "settings": "for Ratio of Glandular Cells Containing Acid Glycoprotein to Total Glandular Cells (%): control 72.4; for EC50: Canis lupus familiaris, dose required for decreasing acid glycoprotein by 50%, calculated from Table III data, read-out: ED50 (the source's name); for Potency Ratio: from ED50, dose of reference drug 1 made 1", "protocol": "Experiments were performed following the method of Yanaura et al. (Nippon Yakurigaku Zasshi, 77, 559 - 568 (1981)). Male mongrel dogs weighing 10 to 12 kg were anesthetized with sodium pentobarbital (30 mg/kg, i.v.). The trachea was quickly excised about 10 cm long and rapidly […] to a Hanks' solution (95% 02 - 5% CO2, 37 + 1° ). Connective tissues around were removed and the trachea was cut into strips about 2 cm long. The tracheal strips were preincubated for 30 minutes in Hanks' solution, and then drugs were added to the solution and the mixtures were further incubated for 30 minutes. The tracheal strips were then fixed with a 10% formaldehyde isotonic solution followed by dehydrating in a series of graded ethanol concentrations and paraffinembedding in a conventional manner. Sections 4 µm thick were cut with a Jung type microtome and stained with alcian blue (pH 2.5) - periodic acid Schiff (AB (pH 2.5)/PAS). The specimens were studied by the optical microscopic observation with the effects of drugs on the secretory activities of the tracheal secretory cells and on the dissolution of acid glycoprotein in submucosal glandular cells of the tracheal. As a tracheal mucus dissolution activity, an effect on the dissolution of acid glycoprotein in submucosal glandular cells was observed. In double staining with AB (pH 2.5)/PAS, submucosal glandular cells containing much acid glycoprotein were strongly stained blue because of the reaction with AB. When acid glycoprotein in glandular cells is dissolved and its acid groups were lost, it is stained with PAS instead of AB. Consequently, submucosal glandular cells turned to red from blue in color. The ratio of blue glandular cells to total glandular cells was observed, and the effect on the dissolution of acid glycoprotein was estimated by decrease in the ratio. Based on the above data, a dose of each of the compounds tested required for decreasing acid glycoprotein by 50% (ED50) was calculated. Further, a potency ratio was determined when the dose of reference drug 1 was made 1."}, "[2]": {"settings": "compared with reference drugs 1 and 2"}}, "note": "Structures can show the parent of a compound that is named as a salt. Marks after values point to notes of the source that are not given here."}
{"smiles": "COc1cc(C(=O)Nc2c(Br)cc(Br)cc2CN(C)C2CCCCC2)ccc1O.Cl", "note": "[Compound of This Invention, 2-(4-Hydroxy-3-methoxybenzoylamino)-3,5-dibromo-N-cyclohexyl-N-methylbenzylamine hydrochloride]", "values": [{"measurement": "Acinar Inner Diameter of Submucosal Gland to Wall Ratio (A^IWR)", "setting": "tracheal secretory cells; 1 x 10^-5M", "value": "7.3 x 10^-2**"}, {"measurement": "Acinar Inner Diameter of Submucosal Gland to Wall Ratio (A^IWR)", "setting": "tracheal secretory cells; 1 x 10^-6M", "value": "7.1 x 10^-2**"}, {"measurement": "Acinar Inner Diameter of Submucosal Gland to Wall Ratio (A^IWR)", "setting": "tracheal secretory cells; 1 x 10^-7M", "value": "6.1 x 10^-2*"}, {"measurement": "activation at 10 µM", "setting": "tracheal secretory cells; 1 x 10^-5M", "value": 46, "unit": "%"}, {"measurement": "activation at 1 µM", "setting": "tracheal secretory cells; 1 x 10^-6M", "value": 42, "unit": "%"}, {"measurement": "activation at 0.1 µM", "setting": "tracheal secretory cells; 1 x 10^-7M", "value": 22, "unit": "%"}, {"measurement": "enhancement in A^IWR, times as strong as that of reference drugs 1 and 2", "setting": "tracheal secretory cells; [2]", "value": "about 10 times"}, {"measurement": "LD50 at 168 h", "setting": "Acute toxicity test; ip, I.P.", "value": "> 4000", "unit": "mg/kg"}, {"measurement": "LD50 at 168 h", "setting": "Acute toxicity test; po, P.O.", "value": "> 12000", "unit": "mg/kg"}, {"measurement": "Ratio of Glandular Cells Containing Acid Glycoprotein to Total Glandular Cells (%)", "setting": "[1]; 1 x 10^-5 M", "value": "10.6** %"}, {"measurement": "Ratio of Glandular Cells Containing Acid Glycoprotein to Total Glandular Cells (%)", "setting": "[1]; 1 x 10^-6 M", "value": "21.6** %"}, {"measurement": "Ratio of Glandular Cells Containing Acid Glycoprotein to Total Glandular Cells (%)", "setting": "[1]; 1 x 10^-7 M", "value": "42.0** %"}, {"measurement": "EC50", "setting": "[1]", "value": 230, "unit": "nM"}, {"measurement": "mucolytic activity (dissolution of acid glycoprotein), times stronger than that of reference drugs 1 and 2", "setting": "[1]; [2]", "value": 10, "unit": "times"}, {"measurement": "Potency Ratio", "setting": "[1]", "value": 10.87}]}
{"smiles": "COc1cc(C(=O)Nc2c(Br)cc(Br)cc2CN(C)C2CCCCC2)ccc1OC(C)=O", "note": "[Reference Drug 1, 2-(4-Acetoxy-3-methoxybenzoylamino)-3.5-dibromo-N-cyclohexyl-N-methylbenzylamine hydrochloride]", "values": [{"measurement": "Acinar Inner Diameter of Submucosal Gland to Wall Ratio (A^IWR)", "setting": "tracheal secretory cells; 1 x 10^-5M", "value": "6.5 x 10^-2**"}, {"measurement": "Acinar Inner Diameter of Submucosal Gland to Wall Ratio (A^IWR)", "setting": "tracheal secretory cells; 1 x 10^-6M", "value": "6.2 x 10^-2*"}, {"measurement": "Acinar Inner Diameter of Submucosal Gland to Wall Ratio (A^IWR)", "setting": "tracheal secretory cells; 1 x 10^-7M", "value": "5.3 x 10^-2"}, {"measurement": "activation at 10 µM", "setting": "tracheal secretory cells; 1 x 10^-5M", "value": 30, "unit": "%"}, {"measurement": "activation at 1 µM", "setting": "tracheal secretory cells; 1 x 10^-6M", "value": 24, "unit": "%"}, {"measurement": "activation at 0.1 µM", "setting": "tracheal secretory cells; 1 x 10^-7M", "value": 6, "unit": "%"}, {"measurement": "LD50 at 168 h", "setting": "Acute toxicity test; ip, I.P.", "value": "> 4000", "unit": "mg/kg"}, {"measurement": "LD50 at 168 h", "setting": "Acute toxicity test; po, P.O.", "value": "> 12000", "unit": "mg/kg"}, {"measurement": "Ratio of Glandular Cells Containing Acid Glycoprotein to Total Glandular Cells (%)", "setting": "[1]; 1 x 10^-5 M", "value": "23.8** %"}, {"measurement": "Ratio of Glandular Cells Containing Acid Glycoprotein to Total Glandular Cells (%)", "setting": "[1]; 1 x 10^-6 M", "value": "46.8** %"}, {"measurement": "Ratio of Glandular Cells Containing Acid Glycoprotein to Total Glandular Cells (%)", "setting": "[1]; 1 x 10^-7 M", "value": 71.0, "unit": "%"}, {"measurement": "EC50", "setting": "[1]", "value": 2500, "unit": "nM"}]}
{"smiles": "CN(Cc1cc(Br)cc(Br)c1N)C1CCCCC1.Cl", "note": "[Reference Drug 2, 2-Amino-3,5-dibromo-N-cyclohexyl-N-methylbenzylamine hydrochloride]", "values": [{"measurement": "Acinar Inner Diameter of Submucosal Gland to Wall Ratio (A^IWR)", "setting": "tracheal secretory cells; 1 x 10^-5M", "value": "6.2 x 10^-2*"}, {"measurement": "Acinar Inner Diameter of Submucosal Gland to Wall Ratio (A^IWR)", "setting": "tracheal secretory cells; 1 x 10^-6M", "value": "5.6 x 10^-2"}, {"measurement": "Acinar Inner Diameter of Submucosal Gland to Wall Ratio (A^IWR)", "setting": "tracheal secretory cells; 1 x 10^-7M", "value": "5.2 x 10^-2"}, {"measurement": "activation at 10 µM", "setting": "tracheal secretory cells; 1 x 10^-5M", "value": 24, "unit": "%"}, {"measurement": "activation at 1 µM", "setting": "tracheal secretory cells; 1 x 10^-6M", "value": 12, "unit": "%"}, {"measurement": "activation at 0.1 µM", "setting": "tracheal secretory cells; 1 x 10^-7M", "value": 4, "unit": "%"}, {"measurement": "LD50 at 168 h", "setting": "Acute toxicity test; ip, I.P.", "value": 2320, "unit": "mg/kg"}, {"measurement": "LD50 at 168 h", "setting": "Acute toxicity test; po, P.O.", "value": 9000, "unit": "mg/kg"}, {"measurement": "Ratio of Glandular Cells Containing Acid Glycoprotein to Total Glandular Cells (%)", "setting": "[1]; 1 x 10^-5 M", "value": "17.5** %"}, {"measurement": "Ratio of Glandular Cells Containing Acid Glycoprotein to Total Glandular Cells (%)", "setting": "[1]; 1 x 10^-6 M", "value": "30.0** %"}, {"measurement": "Ratio of Glandular Cells Containing Acid Glycoprotein to Total Glandular Cells (%)", "setting": "[1]; 1 x 10^-7 M", "value": 66.2, "unit": "%"}, {"measurement": "EC50", "setting": "[1]", "value": 1300, "unit": "nM"}, {"measurement": "Potency Ratio", "setting": "[1]", "value": 1.92}]}
